The results in this text go back to patent US12466827B2, “1,3,4-oxadiazole derivative compounds as histone deacetylase 6 inhibitor, and the pharmaceutical composition comprising the same” (CHONG KUN DANG PHARMACEUTICAL CORP., priority 2020, dated 2025).

One assay has as its target T1, human recombinant HDAC1 (Homo sapiens, UniProt Q13547).
T1 construct: purchased Enzo Life Sciences, Inc. BML-SE456
Nature of the assay: In vitro HDAC enzyme activity inhibition assay (HDAC1). The class given is biochemical. The settings on record: Fluor de Lys-SIRT1 substrate 10 μM, 30° C., 60 minutes, fluorescence. Summed up:
(§1)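 Fluorimetric deacetylase kit: human recombinant HDAC1 or HDAC6 (0.3 μg) with 10 μM Fluor de Lys-SIRT1 substrate and 5-fold diluted compounds, 60 min at 30° C. Developer added for 30 min, fluorescence read at Ex 360/Em 460, IC50 calculated.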

In another assay the target is T2, human recombinant HDAC6 (Homo sapiens, UniProt Q9UBN7).
T2 construct: purchased Calbiochem Inc. 382180
T2 sequence (Q9UBN7 1-1215): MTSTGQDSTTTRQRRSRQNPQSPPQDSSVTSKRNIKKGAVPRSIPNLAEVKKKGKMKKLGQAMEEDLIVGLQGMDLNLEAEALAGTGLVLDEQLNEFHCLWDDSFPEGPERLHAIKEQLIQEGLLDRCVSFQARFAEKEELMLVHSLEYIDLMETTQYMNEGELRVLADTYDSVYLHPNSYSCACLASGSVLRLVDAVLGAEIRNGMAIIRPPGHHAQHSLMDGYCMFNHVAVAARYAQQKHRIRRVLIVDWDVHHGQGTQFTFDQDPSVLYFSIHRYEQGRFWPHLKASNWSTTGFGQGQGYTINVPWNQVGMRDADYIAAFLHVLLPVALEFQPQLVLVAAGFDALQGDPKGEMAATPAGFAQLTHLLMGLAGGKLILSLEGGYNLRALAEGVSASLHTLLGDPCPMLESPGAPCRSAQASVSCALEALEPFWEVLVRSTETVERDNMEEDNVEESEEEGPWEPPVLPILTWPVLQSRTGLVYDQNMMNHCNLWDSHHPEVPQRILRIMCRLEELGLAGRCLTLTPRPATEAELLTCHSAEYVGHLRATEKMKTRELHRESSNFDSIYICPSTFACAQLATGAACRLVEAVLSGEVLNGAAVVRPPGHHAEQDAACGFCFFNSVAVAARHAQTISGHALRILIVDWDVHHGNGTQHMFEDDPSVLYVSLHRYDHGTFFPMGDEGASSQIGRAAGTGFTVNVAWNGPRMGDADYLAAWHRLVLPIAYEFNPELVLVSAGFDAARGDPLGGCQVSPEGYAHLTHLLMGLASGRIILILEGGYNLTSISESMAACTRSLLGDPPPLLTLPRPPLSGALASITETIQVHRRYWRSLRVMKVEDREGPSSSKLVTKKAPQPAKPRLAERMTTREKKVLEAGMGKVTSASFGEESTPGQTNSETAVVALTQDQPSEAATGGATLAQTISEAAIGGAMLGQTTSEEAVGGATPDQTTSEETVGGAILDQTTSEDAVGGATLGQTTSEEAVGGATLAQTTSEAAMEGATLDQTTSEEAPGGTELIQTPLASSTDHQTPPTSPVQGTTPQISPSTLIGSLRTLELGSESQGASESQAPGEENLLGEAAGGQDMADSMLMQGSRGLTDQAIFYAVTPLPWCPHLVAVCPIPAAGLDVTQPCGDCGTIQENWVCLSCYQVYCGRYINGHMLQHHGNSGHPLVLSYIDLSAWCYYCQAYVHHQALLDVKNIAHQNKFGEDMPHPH
Nature of the assay: In vitro HDAC enzyme activity inhibition assay (HDAC6). It is filed as biochemical. The conditions noted are these: for HDAC6 selectivity (fold): HDAC6 over HDAC1; for IC50: same protocol as the HDAC1 test, human recombinant HDAC6 (Calbiochem). Summed up: as §1

T1 sequence (Q13547 whole entry): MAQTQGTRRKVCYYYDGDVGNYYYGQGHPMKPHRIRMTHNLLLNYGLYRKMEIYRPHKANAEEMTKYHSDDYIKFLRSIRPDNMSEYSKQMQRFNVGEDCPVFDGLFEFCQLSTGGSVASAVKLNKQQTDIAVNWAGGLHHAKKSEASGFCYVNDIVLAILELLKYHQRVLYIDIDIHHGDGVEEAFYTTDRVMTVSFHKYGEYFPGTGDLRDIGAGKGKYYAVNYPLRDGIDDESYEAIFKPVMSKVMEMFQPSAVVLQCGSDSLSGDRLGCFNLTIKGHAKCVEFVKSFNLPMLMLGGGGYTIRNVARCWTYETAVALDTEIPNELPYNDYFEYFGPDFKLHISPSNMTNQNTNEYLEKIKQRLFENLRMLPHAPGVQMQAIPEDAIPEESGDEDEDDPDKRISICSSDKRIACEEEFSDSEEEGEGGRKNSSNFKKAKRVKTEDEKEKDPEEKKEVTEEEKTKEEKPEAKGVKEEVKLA

Regarding `CC(C)N1CCC(S(=O)(=O)N(Cc2cn3ccc(-c4nnc(C(F)F)o4)cc3n2)c2ccccc2)CC1` [Compound 4215, N-((7-(5-(difluoromethyl)-1,3,4-oxadiazol-2-yl)imidazo[1,2-a]pyridin-2-yl)methyl)-1-isopropyl-N-phenylpiperidine-4-sulfonamide], the IC50 (commonly the point on the concentration scale where inhibition reaches its midpoint) at human recombinant HDAC1 is over 50000 nM. For the same compound, at human recombinant HDAC6, the “HDAC6 selectivity (fold)” value amounted to 275 fold and the half-maximal inhibitory concentration (IC50) stood at 182 nM.

For `O=S(=O)(C1CCN(c2ncccn2)CC1)N(Cc1cn2ccc(-c3nnc(C(F)F)o3)cc2n1)c1cccc(F)c1` [Compound 4255, N-((7-(5-(difluoromethyl)-1,3,4-oxadiazol-2-yl)imidazo[1,2-a]pyridin-2-yl)methyl)-N-(3-fluorophenyl)-1-(pyrimidin-2-yl)piperidine-4-sulfonamide], the half-inhibitory concentration (IC50) on human recombinant HDAC1 is over 50000 nM. Moreover, on human recombinant HDAC6, the “HDAC6 selectivity (fold)” value was determined as 463 fold and the half-maximal inhibitory concentration (IC50) was found to be 108 nM.

In the case of `O=S(=O)(N1CCN(C2CCC(F)(F)CC2)CC1)N(Cc1cn2ccc(-c3nnc(C(F)F)o3)cc2n1)c1ccccc1` [Compound 4264], the IC50 on human recombinant HDAC1 was over 50000 nM. At human recombinant HDAC6, the “HDAC6 selectivity (fold)” value is 246 fold and the IC50 amounted to 203 nM.

Turning to `CC(CO)N1CCN(S(=O)(=O)N(Cc2cn3ccc(-c4nnc(C(F)F)o4)cc3n2)c2cccc(F)c2)CC1` (stereo not drawn) [Compound 4300, N-((7-(5-(difluoromethyl)-1,3,4-oxadiazol-2-yl)imidazo[1,2-a]pyridin-2-yl)methyl)-N-(3-fluorophenyl)-4-(1-hydroxypropan-2-yl)piperazine-1-sulfonamide], the IC50 on human recombinant HDAC1 was over 50000 nM; on human recombinant HDAC6, 122 nM. Also, the “HDAC6 selectivity (fold)” value at human recombinant HDAC6 stood at 410 fold.

As for `O=C(C1CCC1)N1CCC(S(=O)(=O)N(Cc2cn3ccc(-c4nnc(C(F)F)o4)cc3n2)c2ccccc2)CC1` [Compound 4223, 1-(cyclobutanecarbonyl)-N-((7-(5-(difluoromethyl)-1,3,4-oxadiazol-2-yl)imidazo[1,2-a]pyridine-2-yl)methyl)-N-phenylpiperidine-4-sulfonamide], the IC50 at human recombinant HDAC1 is over 50000 nM. Besides, on human recombinant HDAC6, the “HDAC6 selectivity (fold)” value is recorded as 392 fold and the IC50 came out at 128 nM.

As to `CC(=O)N1CCC(S(=O)(=O)N(Cc2cn3ccc(-c4nnc(C(F)F)o4)cc3n2)c2ccccc2)CC1` [Compound 4221, 1-acetyl-N-((7-(5-(difluoromethyl)-1,3,4-oxadiazol-2-yl)imidazo[1,2-a]pyridin-2-yl)methyl)-N-phenylpiperidine-4-sulfonamide], the half-maximal inhibitory concentration (IC50) on human recombinant HDAC1 was over 50000 nM; at human recombinant HDAC6, 137 nM. The “HDAC6 selectivity (fold)” value on human recombinant HDAC6 was 364 fold.

In the case of `O=C(C1CCC1)N1CCC(S(=O)(=O)N(Cc2cn3ccc(-c4nnc(C(F)F)o4)cc3n2)c2cccc(F)c2)CC1` [Compound 4248, 1-(cyclobutanecarbonyl)-N-((7-(5-(difluoromethyl)-1,3,4-oxadiazol-2-yl)imidazo[1,2-a]pyridine-2-yl)methyl)-N-(3-fluorophenyl)piperidine-4-sulfonamide], the IC50 on human recombinant HDAC1 is over 50000 nM. Further, at human recombinant HDAC6, the “HDAC6 selectivity (fold)” value stood at 542 fold and the IC50 was found to be 92.2 nM.

Turning to `CCN1CCC(S(=O)(=O)N(Cc2cn3ccc(-c4nnc(C(F)F)o4)cc3n2)c2ccccc2)CC1` [Compound 4214, N-((7-(5-(difluoromethyl)-1,3,4-oxadiazol-2-yl)imidazo[1,2-a]pyridin-2-yl)methyl)-1-ethyl-N-phenylpiperidine-4-sulfonamide], the IC50 at human recombinant HDAC1 is over 50000 nM. At human recombinant HDAC6, the “HDAC6 selectivity (fold)” value amounted to 278 fold and the IC50 amounted to 180 nM.

In the case of `O=C(N1CCC(S(=O)(=O)N(Cc2cn3ccc(-c4nnc(C(F)F)o4)cc3n2)c2ccccc2)CC1)C(F)(F)F` [Compound 4224, N-((7-(5-(difluoromethyl)-1,3,4-oxadiazol-2-yl)imidazo[1,2-a]pyridin-2-yl)methyl)-N-phenyl-1-(2,2,2-trifluoroacetyl)piperidine-4-sulfonamide], the IC50 at human recombinant HDAC1 was over 50000 nM. Moreover, on human recombinant HDAC6, the “HDAC6 selectivity (fold)” value was 354 fold and the half-maximal inhibitory concentration (IC50) came out at 141 nM.

Consider `O=C(C1CCC1)N1CCN(S(=O)(=O)N(Cc2cn3ccc(-c4nnc(C(F)F)o4)cc3n2)c2ccccc2)CC1` [Compound 4268, 4-(cyclobutanecarbonyl)-N-((7-(5-(difluoromethyl)-1,3,4-oxadiazol-2-yl)imidazo[1,2-a]pyridine-2-yl)methyl)-N-phenylpiperazine-1-sulfonamide], for which the results for the half-maximal inhibitory concentration (IC50) at human recombinant HDAC1 and on human recombinant HDAC6 were over 50000 nM and 129 nM, respectively. Also, the “HDAC6 selectivity (fold)” value at human recombinant HDAC6 is given as 389 fold.

Regarding `O=S(=O)(N1CCN(C2CCOCC2)CC1)N(Cc1cn2ccc(-c3nnc(C(F)F)o3)cc2n1)c1cccc(F)c1` [Compound 4304, N-((7-(5-(difluoromethyl)-1,3,4-oxadiazol-2-yl)imidazo[1,2-a]pyridin-2-yl)methyl)-N-(3-fluorophenyl)-4-(tetrahydro-2H-pyran-4-yl)piperazine-1-sulfonamide], the half-inhibitory concentration (IC50) on human recombinant HDAC1 is over 50000 nM. Besides, at human recombinant HDAC6, the “HDAC6 selectivity (fold)” value was found to be 832 fold and the IC50 was determined as 60.1 nM.

For `CN(C)C(=O)N1CCN(S(=O)(=O)N(Cc2cn3ccc(-c4nnc(C(F)F)o4)cc3n2)c2cccc(F)c2)CC1` [Compound 4314, 4—(N-((7-(5-(difluoromethyl)-1,3,4-oxadiazol-2-yl)imidazo[1,2-a]pyridin-2-yl)methyl)-N-(3-fluorophenyl)sulfamoyl)-N, N-dimethylpiperazine-1-carboxamide], the concentration for half-maximal inhibition (IC50) at human recombinant HDAC1 is over 50000 nM. Besides, at human recombinant HDAC6, the “HDAC6 selectivity (fold)” value stood at 462 fold and the IC50 was determined as 108 nM.

For the compound `CN1CCN(S(=O)(=O)N(Cc2cn3ccc(-c4nnc(C(F)F)o4)cc3n2)c2ccccc2)CC1` [Compound 4256, N-((7-(5-(difluoromethyl)-1,3,4-oxadiazol-2-yl)imidazo[1,2-a]pyridin-2-yl)methyl)-4-methyl-N-phenylpiperazine-1-sulfonamide], the IC50 on human recombinant HDAC1 was over 50000 nM. Also, at human recombinant HDAC6, the “HDAC6 selectivity (fold)” value was determined as 630 fold and the IC50 is 79.4 nM.

With `CCC(=O)N1CCC(S(=O)(=O)N(Cc2cn3ccc(-c4nnc(C(F)F)o4)cc3n2)c2ccccc2)CC1` [Compound 4222, N-((7-(5-(difluoromethyl)-1,3,4-oxadiazol-2-yl)imidazo[1,2-a]pyridin-2-yl)methyl)-N-phenyl-1-propionylpiperidine-4-sulfonamide], the concentration for half-maximal inhibition (IC50) at human recombinant HDAC1 is over 50000 nM. For the same compound, on human recombinant HDAC6, the “HDAC6 selectivity (fold)” value was 229 fold and the IC50 was found to be 218 nM.

Consider `O=S(=O)(C1CCN(C2CCC2)CC1)N(Cc1cn2ccc(-c3nnc(C(F)F)o3)cc2n1)c1cccc(F)c1` [Compound 4240, 1-cyclobutyl-N-((7-(5-(difluoromethyl)-1,3,4-oxadiazol-2-yl)imidazo[1,2-a]pyridin-2-yl)methyl)-N-(3-fluorophenyl)piperidine-4-sulfonamide], for which the IC50 on human recombinant HDAC1 is over 50000 nM. At human recombinant HDAC6, the “HDAC6 selectivity (fold)” value is listed as 936 fold and the concentration for half-maximal inhibition (IC50) was determined as 53.4 nM.

As for `O=S(=O)(C1CCN(C2COC2)CC1)N(Cc1cn2ccc(-c3nnc(C(F)F)o3)cc2n1)c1ccccc1` [Compound 3779, N-((7-(5-(difluoromethyl)-1,3,4-oxadiazol-2-yl)imidazo[1,2-a]pyridin-2-yl)methyl)-1-(oxetan-3-yl)-N-phenylpiperidine-4-sulfonamide], the IC50 on human recombinant HDAC1 is over 50000 nM. In addition, on human recombinant HDAC6, the “HDAC6 selectivity (fold)” value is 321 fold and the half-inhibitory concentration (IC50) is 156 nM.

Regarding `COC(=O)N1CCC(S(=O)(=O)N(Cc2cn3ccc(-c4nnc(C(F)F)o4)cc3n2)c2cccc(F)c2)CC1` [Compound 4252, methyl 4-(N-((7-(5-(difluoromethyl)-1,3,4-oxadiazol-2-yl)imidazo[1,2-a]pyridin-2-yl)methyl)-N-(3-fluorophenyl)sulfamoyl)piperidine-1-carboxylate], the concentration for half-maximal inhibition (IC50) on human recombinant HDAC1 is over 50000 nM. For the same compound, at human recombinant HDAC6, the “HDAC6 selectivity (fold)” value amounted to 455 fold and the half-maximal inhibitory concentration (IC50) came out at 110 nM.
